Data set [1] can be described thus: hygroscopicity / dynamic vapor sorption analysis. The note with it: for water uptake (DVS): RH increased from about 0% to about 90% RH. It is filed as physicochemical. As for the experimental part: In certain embodiments, Form A is characterized by dynamic vapor sorption analysis. […] In certain embodiments, Form A comprises less than 0.1% water as determined in a coulometric Karl Fischer (KF) titrator equipped with an oven sample processor set at 225° C.
In certain embodiments, Form B is characterized by dynamic vapor sorption analysis. […] In certain embodiments, Form B comprises less than 0.1% water as determined in a coulometric Karl Fischer (KF) titrator equipped with an oven sample processor set at 225° C.
In certain embodiments, Form C is characterized by dynamic vapor sorption analysis. […] In certain embodiments, Form C comprises less than 0.1% water as determined in a coulometric Karl Fischer (KF) titrator equipped with an oven sample processor set at 225° C.

Data set [2] in a line: physchem. The settings on record: aqueous buffer.
For data set [3] the following is noted: pH 5.
A short description of data set [4]: physchem. Format: physicochemical. The note with it: organic solvent or mixture. An excerpt:
Due to the poor water solubility of Compound 1, Form C, a cosolvent system was required to solubilize the drug compound in a solution prior to lyophilization. Several solubilizing agents and solvents that were considered in this example include hydroxypropyl-beta-cyclodextrin (HPβCD), Sulfobutylether-β-cyclodextrin sodium salt (SBEβCD; Captisol®), Tert-butyl alcohol (TBA), and dimethylacetamide (DMA).
When the SBEβCD concentration increased from 30% to 40%, the enhancement in drug solubility was very limited.

For the compound `O=C1CCC(N2Cc3cc(CNC(=O)C(F)(F)c4ccc(Cl)cc4)ccc3C2=O)C(=O)N1` (stereo not shown) [Form B, 2-(4-chlorophenyl)-N-((2-(2,6-dioxopiperidin-3-yl)-1-oxoisoindolin-5-yl)methyl)-2,2-difluoroacetamide], the “water uptake (DVS)” value in data set [1] is on record as “about 1.4 % w/w”.

Compound `O=C1CCC(N2Cc3cc(CNC(=O)C(F)(F)c4ccc(Cl)cc4)ccc3C2=O)C(=O)N1` (stereo not shown) [Compound 1, 2-(4-chlorophenyl)-N-((2-(2,6-dioxopiperidin-3-yl)-1-oxoisoindolin-5-yl)methyl)-2,2-difluoroacetamide] returned a solubility in the data set “physchem [2]” of no more than 0.001 mg/mL. For the same compound, the “Solution Stability” value in data set [3] was “DS is not stable in solution at pH of 5.0 or above”. For the same compound, the Hygroscopicity entry in data set [1] was “Not hygroscopic”.

Regarding `O=C1CCC(N2Cc3cc(CNC(=O)C(F)(F)c4ccc(Cl)cc4)ccc3C2=O)C(=O)N1` (single isomer, unassigned) [Form C, 2-(4-Chlorophenyl)-N-((2-(2,6-dioxopiperidin-3-yl)-1-oxoisoindolin-5-yl)methyl)-2,2-difluoroacetamide], the solubility in “physchem [4]” is less than 166 mg/mL. The “water uptake (DVS)” value in data set [1] is on record as “about 0.6 % w/w”.

`O=C1CCC(N2Cc3cc(CNC(=O)C(F)(F)c4ccc(Cl)cc4)ccc3C2=O)C(=O)N1` (single isomer, unassigned) [Form A, 2-(4-Chlorophenyl)-N-((2-(2,6-dioxopiperidin-3-yl)-1-oxoisoindolin-5-yl)methyl)-2,2-difluoroacetamide]: the “water uptake (DVS)” value in data set [1] was “about 1.2 % w/w”.
